From patent US20150290105A1, “COMPOSITION COMPRISING SYRINGARESINOL FOR IMPROVING THE SKIN” (AMOREPACIFIC CORPORATION, priority 2011, published 2015)

Columns and labels:
TGF-β1 = TGF-β1 production in fibroblasts (ELISA); assay type: cell-based, human; settings: HDF cells, 24 hours
Experimental: Human fibroblast HDF cells were cultured in substantially the same manner as in Test Example 10.
The cultured cells were treated with syringaresinol dissolved in DMSO to a concentration of 20, 50 or 100 μM for 24 hours. After 24 hours, the cell culture was recovered.
The quantity of TGF-β1 produced in the recovered cell culture was measured using the Quantikine™ high-sensitivity ELISA kit (R&D Systems, USA) according to the manufacturer's instructions. All the samples required for the measurement of the quantity of TGF-β1 were provided by the kit. First, the recovered cell culture was transferred to a 96-well microplate uniformly coated with TGF-β1 antibody and it was allowed for antigen-antibody reaction to proceed at 37° C. for 1 hour. After removing the cell culture, the wells were washed 3 times with PBS. Then, horseradish peroxidase-conjugated secondary antibody was added to each well and it was allowed for antigen-antibody reaction to proceed for 1 hour. Subsequently, after adding tetramethylbenzidine as a chromogenic substrate to each well, followed by reaction at room temperature for 15 minutes, 1 N sulfuric acid was added to stop the reaction. Then, absorbance was measured at 450 nm using a spectrophotometer. After drawing a standard curve using a standard solution, the TGF-β1 production amount in the cell culture with the test substance added was calculated from the measured absorbance.

[1] = Keratin reducing effect on human skin (Charm View); assay type: in vivo
Experimental: In order to investigate whether syringaresinol can reduce the keratin of skin, syringaresinol of the same concentration as in Test Example 6 was applied on the inside of the lower arms of 50 male and female adults in their 20s and 30s and without skin diseases. 24 hours later, the reduced amount of keratin was measuring using Charm View (Moritex, Japan). The initial amount of skin keratin prior to application of the test substance measured with Charm View under a constant-temperature (24° C.), constant-humidity (40%) condition was used as a reference value, and the change in the amount of keratin was measured 24 hours later.

[2] = test system: mushroom-derived tyrosinase; assay: Tyrosinase activity inhibiting effect (dopachrome formation); assay type: biochemical; settings: 10 ppm, 37° C. 10 minutes
Experimental: The reaction solution was prepared by adding 500 μL of 0.1 M PBS, 15 μg of L-tyrosine and 50 μL of syringaresinol and then adding distilled water to make the final volume 1500 μL. A solution prepared through the same procedure but with Kojic acid instead of syringaresinol was used as a positive control. The concentration of all the samples used in experiment was set to 10 ppm. After adding 10 units of mushroom-derived tyrosinase to the reaction solution, followed by reaction at 37° C. for 10 minutes, the reaction was stopped by quickly transferring onto ice for 5 minutes. The synthesis rate of dopachrome produced was determined by measuring absorbance at 475 nm and tyrosinase activity inhibiting rate (%) was calculated therefrom.

[3] = Free radical scavenging ability (DPPH); settings: 37° C. 30 minutes, FIG. 2
Experimental: A radical solution was prepared by dissolving 100 µM diphenylpicrylhydrazyl (DPPH), composed of stable free radicals, in 99% ethanol. A reaction solution was prepared by dissolving syringaresinol in distilled water with different concentrations (pg/mL) and mixing the syringaresinol solution with the radical solution. A reaction solution not containing syringaresinol was used as a negative control and a reaction solution containing vitamin C (Vit C) was used as a positive control. After sufficiently reacting at 37° C. for 30 minutes, radical scavenging ability was evaluated by measuring absorbance at 515 nm. The radical scavenging ability was calculated relative to the negative control group as 100.

[4] = test system: Melanocytes (Mel-Ab cells); assay: Melanin production inhibiting effect in mouse melanocytes; assay type: cell-based; settings: Mel-Ab cells, 3 consecutive days; hydroquinone 10 ppm
Experimental: The melanin production inhibiting effect of the syringaresinol obtained in Example was evaluated using mouse melanocytes. First, melanocytes (Mel-Ab cells) derived from C57BL/6 (treated with Dooley et al.'s method) were cultured under the condition of 37° C. and 5% CO2 in Dulbecco's modified Eagle's medium (DMEM) containing 10% fetal bovine serum, 100 nM 12-O-tetradecanoylphorbol-13-acetate and 1 nM cholera toxin. […] After removing the culture medium and washing with PBS, the cells were dissolved with 1 N sodium hydroxide and absorbance was measured at 400 nm. Melanin production inhibiting rate (%) was calculated according to Equation 2 from the measured absorbance. Melanin production inhibiting rate (%)=100−(Absorbance of test substance) /(Absorbance of control substance)×100 [Equation 2]

[5] = Skin wrinkle formation after UVB in hairless mouse; assay type: in vivo, hairless mice (SKH: HR-1); settings: UVB 180 mJ/cm^2
Experimental: 30-week-old female hairless mice (SKH: HR-1) weighing 25-39 g were purchased from Charles River Laboratories (Wilmington, Mass., USA). The mice were accustomed to the laboratory environment for a week and then grouped into normal groups and test substance-treated groups, with 5 mice per each group. The mice were allowed free access to water and feed under the condition of 12-hour light/dark cycles, 23.2° C. and 55.10% humidity.
For the test substance-treated groups, a patch of 1% syringaresinol dissolved in a solvent (1,3-butylene glycol:ethanol=7:3) was applied 2 times for 2 days or 200 mg/kg syringaresinol was orally administered. The control groups were treated in the same way using the solvent of the same amount instead of syringaresinol. The syringaresinol-applied group, syringaresinol oral administration group and control groups were exposed to UVB of 180 mJ/cm^2. Before and after the UV radiation, skin wrinkles on the exposed part were taken with replica and measured using the Visiometer system (C+K).
Change (%)=[(Tdi−Tdo)/(Tdo)]×100 [Equation 4]
Tdi: value measured after UV radiation
Tdo: value measured before UV radiation

interleukin 6 gene = assay: Interleukin 6 gene expression in keratinocytes (Q-RT-PCR); assay type: cell-based; settings: 24 hours, relative to non-treated control
Experimental: Interleukin 6 (IL-6) is a cytokine secreted by keratinocytes, etc. Increased secretion owing to activation of the IL-6 gene leads to bright skin color and skin tone and suppressed skin pigmentation such as melasma or blemish. It was investigated whether syringaresinol can increase the expression of the IL-6 gene in skin keratinocytes.
Keratinocytes were treated with 10 ppm or 100 ppm syringaresinol. 24 hours later, the cells were recovered and washed twice with 10 mL of PBS. Then, total RNA was isolated from the cells using TRIzol reagent (Invitrogen, Carlsbad, Calif., USA). The isolated RNA was purified once more using the Qiagen RNeasy kit (Qiagen, Valencia, Calif.) and cDNA was synthesized therefrom using the Superscript Reverse Transcriptase (RT) II kit (Invitrogen, Carlsbad, Calif.). Subsequently, the change in the expression of the interleukin 6 gene was quantitatively analyzed by real-time reverse transcription polymerase chain reaction (Q-RT-PCR). The change in the gene expression pattern was evaluated using the TaqMan gene expression assay kit (Applied Biosystems, Forster City, Calif.). Hs00174360_ml was used as a primer. The expression level of interleukin 6 in the cells was analyzed by real-time PCR and was calculated relative to a non-treated control group.

SMILES: COc1cc(C2OCC3C(c4cc(OC)c(O)c(OC)c4)OCC23)cc(OC)c1O (stereo not drawn) [Syringaresinol, syringaresinol]
- TGF-β1 production amount (TGF-β1; 20 μM): 43.3 ± 1.0
- TGF-β1 production amount (TGF-β1; 50 μM): 87.2 ± 4.2
- TGF-β1 production amount (TGF-β1; 100 μM): 92.1 ± 5.6
- Amount of skin keratin, 24 hours later ([1]; 1% applied on lower arm, 24 hours): 11.9
- Amount of skin keratin, Before application ([1]; reference value, 24° C., 40% humidity): 20.3
- Tyrosinase activity inhibiting rate (%) [2]: 90.2%
- Free radical scavenging ability [3]: scavenge free radicals in a concentration-dependent manner and the effect is superior to that of vitamin C
- Melanin production inhibiting rate (%) [4]: 85.7%
- Increase of skin wrinkles (Change %) ([5]; application of 1% patch, control 230±35%): 121±35%
- Increase of skin wrinkles (Change %) ([5]; oral administration 200 mg/kg, control 224±45%): 123±25%
- Expression of IL-6 gene (interleukin 6 gene; 10 ppm): 3.5
- Expression of IL-6 gene (interleukin 6 gene; 100 ppm): 8.2
